IC50 and inhibition data for 6 compounds are collected here from ChEMBL document CHEMBL5528086, “Unraveling the Promise of RET Inhibitors in Precision Cancer Therapy by Targeting RET Mutations” (J Med Chem, 2024).

Test [1] in a line: Inhibition of CCDC6-RET (unknown origin).
For test [2], the system named is Proto-oncogene tyrosine-protein kinase receptor Ret (Homo sapiens), P07949 [V804L]. Kind of test: Inhibition of RET V804L mutant (unknown origin) at 4 nM relative to control.
In test [3] the target is ALK tyrosine kinase receptor (Homo sapiens, UniProt Q9UM73). Kind of test: Inhibition of wild type ALK (unknown origin) by enzymatic assay.
Chain of ALK tyrosine kinase receptor (Q9UM73 whole entry): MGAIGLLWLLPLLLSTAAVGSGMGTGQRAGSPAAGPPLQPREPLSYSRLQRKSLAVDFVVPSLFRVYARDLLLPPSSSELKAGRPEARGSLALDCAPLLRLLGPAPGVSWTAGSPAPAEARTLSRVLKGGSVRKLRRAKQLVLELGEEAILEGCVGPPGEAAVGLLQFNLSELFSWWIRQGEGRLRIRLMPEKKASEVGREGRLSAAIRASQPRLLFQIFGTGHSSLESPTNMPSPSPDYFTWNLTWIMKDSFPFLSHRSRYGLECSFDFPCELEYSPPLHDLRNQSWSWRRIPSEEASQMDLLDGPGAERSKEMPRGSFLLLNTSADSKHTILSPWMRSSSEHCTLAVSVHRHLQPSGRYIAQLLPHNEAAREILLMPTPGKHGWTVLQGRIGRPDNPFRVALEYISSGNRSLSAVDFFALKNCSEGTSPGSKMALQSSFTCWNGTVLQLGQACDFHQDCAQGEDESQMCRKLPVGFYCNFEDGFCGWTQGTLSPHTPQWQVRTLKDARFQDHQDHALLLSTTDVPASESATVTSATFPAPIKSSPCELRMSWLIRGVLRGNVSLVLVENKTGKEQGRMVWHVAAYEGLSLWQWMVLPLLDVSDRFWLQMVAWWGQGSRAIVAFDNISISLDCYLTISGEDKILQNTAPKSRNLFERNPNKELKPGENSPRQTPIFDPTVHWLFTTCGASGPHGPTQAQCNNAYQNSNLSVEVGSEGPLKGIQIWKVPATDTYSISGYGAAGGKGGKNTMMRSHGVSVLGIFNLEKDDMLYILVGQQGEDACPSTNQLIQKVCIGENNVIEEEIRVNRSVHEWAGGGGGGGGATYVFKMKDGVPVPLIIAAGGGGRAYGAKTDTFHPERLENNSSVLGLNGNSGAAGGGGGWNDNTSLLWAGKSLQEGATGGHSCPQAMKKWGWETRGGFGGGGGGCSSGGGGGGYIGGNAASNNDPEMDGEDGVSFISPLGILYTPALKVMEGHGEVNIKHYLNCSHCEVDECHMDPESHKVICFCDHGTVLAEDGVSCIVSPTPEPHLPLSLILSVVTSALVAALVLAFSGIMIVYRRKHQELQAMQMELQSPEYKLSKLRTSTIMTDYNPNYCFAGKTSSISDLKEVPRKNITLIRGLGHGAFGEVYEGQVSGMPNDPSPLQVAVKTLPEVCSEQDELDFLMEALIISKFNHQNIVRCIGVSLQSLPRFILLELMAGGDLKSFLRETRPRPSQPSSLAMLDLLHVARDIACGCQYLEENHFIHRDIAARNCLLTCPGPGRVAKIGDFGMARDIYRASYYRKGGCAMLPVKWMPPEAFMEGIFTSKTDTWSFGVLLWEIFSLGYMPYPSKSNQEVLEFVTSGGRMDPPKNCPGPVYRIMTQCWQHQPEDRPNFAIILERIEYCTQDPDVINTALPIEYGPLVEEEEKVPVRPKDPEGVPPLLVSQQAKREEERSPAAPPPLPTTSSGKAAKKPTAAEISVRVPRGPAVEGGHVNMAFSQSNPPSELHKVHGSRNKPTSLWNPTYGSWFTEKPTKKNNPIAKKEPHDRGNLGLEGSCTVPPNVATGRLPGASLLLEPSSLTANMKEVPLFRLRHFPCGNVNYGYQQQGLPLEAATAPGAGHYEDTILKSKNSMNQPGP
In test [4] the target is T1, Proto-oncogene tyrosine-protein kinase receptor Ret (Homo sapiens, UniProt P07949). Kind of test: Inhibition of wild type His-tagged human RET by ADP-Glo assay. A general note: ADP-Glo turns the ADP formed in a reaction into a luminescent signal.
T1 sequence (P07949 whole entry): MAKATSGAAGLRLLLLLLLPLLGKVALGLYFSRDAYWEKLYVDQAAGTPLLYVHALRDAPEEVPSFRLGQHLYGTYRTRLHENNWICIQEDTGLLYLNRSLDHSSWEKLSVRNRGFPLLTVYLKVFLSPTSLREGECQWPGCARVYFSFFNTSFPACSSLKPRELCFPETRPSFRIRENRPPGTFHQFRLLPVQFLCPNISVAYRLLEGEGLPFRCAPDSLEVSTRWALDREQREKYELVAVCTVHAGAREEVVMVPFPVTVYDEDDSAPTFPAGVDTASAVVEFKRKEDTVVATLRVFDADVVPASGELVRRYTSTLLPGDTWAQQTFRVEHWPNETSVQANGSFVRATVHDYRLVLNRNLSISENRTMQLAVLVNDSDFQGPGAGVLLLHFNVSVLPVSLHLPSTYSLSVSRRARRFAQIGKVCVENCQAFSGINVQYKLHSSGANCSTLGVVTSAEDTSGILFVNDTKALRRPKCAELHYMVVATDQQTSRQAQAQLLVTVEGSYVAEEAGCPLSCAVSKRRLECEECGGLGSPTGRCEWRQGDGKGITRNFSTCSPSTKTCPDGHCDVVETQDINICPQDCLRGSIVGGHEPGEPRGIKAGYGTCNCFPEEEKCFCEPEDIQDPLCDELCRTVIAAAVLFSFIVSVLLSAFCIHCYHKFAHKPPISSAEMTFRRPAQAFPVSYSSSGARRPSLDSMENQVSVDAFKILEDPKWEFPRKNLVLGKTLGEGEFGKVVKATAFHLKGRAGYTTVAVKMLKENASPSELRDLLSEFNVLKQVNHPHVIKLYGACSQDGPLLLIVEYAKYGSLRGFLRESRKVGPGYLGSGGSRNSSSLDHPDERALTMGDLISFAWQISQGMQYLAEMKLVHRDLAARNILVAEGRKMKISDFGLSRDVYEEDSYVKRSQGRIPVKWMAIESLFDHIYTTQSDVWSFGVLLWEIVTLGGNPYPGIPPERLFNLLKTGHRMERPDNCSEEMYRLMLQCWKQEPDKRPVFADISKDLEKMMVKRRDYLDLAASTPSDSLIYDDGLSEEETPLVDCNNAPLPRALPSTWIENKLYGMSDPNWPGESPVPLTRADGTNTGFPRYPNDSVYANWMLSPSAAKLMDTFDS
For test [5], the target named is Proto-oncogene tyrosine-protein kinase receptor Ret (Homo sapiens, UniProt P07949, V804L). Kind of test: Inhibition of RET V804L mutant (unknown origin).
The target of test [6] is Vascular endothelial growth factor receptor 2 (Homo sapiens, UniProt P35968). Kind of test: Inhibition of wild type VEGFR2 (unknown origin) expressed in baculovirus infected insect cells using biotinylated-GGGGQDGKDYIVLPI peptide as substrate incubated for 1 to 4 hrs by TRF assay. Also noted: species or system Insect cell.
Test [7] has as its target T2, Proto-oncogene tyrosine-protein kinase receptor Ret (Homo sapiens, UniProt P07949, V804M). Kind of test: Inhibition of RET V804M mutant (unknown origin) by KINOMEscan assay.
Test [8] deals with T1, Proto-oncogene tyrosine-protein kinase receptor Ret. Kind of test: Inhibition of wild type human RET by KINOMEscan assay.
In test [9] the test system is Proto-oncogene tyrosine-protein kinase receptor Ret (Homo sapiens), P07949 [S904F]. Kind of test: Inhibition of RET S904F mutant (unknown origin) at 1 nM relative to control.
In test [10] the test system is Proto-oncogene tyrosine-protein kinase receptor Ret (Homo sapiens), P07949 [V804L]. Kind of test: Inhibition of RET V804L mutant (unknown origin) at 4 nM by enzymatic assay relative to control.
Test [11] in a line: Antiproliferative activity against human LC2 cells assessed as reduction in cell growth measured for 48 hrs by MTT assay. The format is functional, cell-based. As to conditions: LC2, 48 h.
Test [12] addresses Coiled-coil domain-containing protein 6/Tyrosine-protein kinase receptor RET (Homo sapiens, UniProt P07949). Kind of test: Inhibition of CCDC6-RET (unknown origin). The format is protein assay.
For test [13], the target named is T1, Proto-oncogene tyrosine-protein kinase receptor Ret. Kind of test: Inhibition of full length His-tagged human recombinant RET expressed in baculovirus infected Sf9 cells.
For test [14] the target is unchanged. Kind of test: Inhibition of GST-tagged wild type RET (unknown origin) expressed in Sf9 cells.
The target in test [15] is T2, Proto-oncogene tyrosine-protein kinase receptor Ret. Kind of test: Inhibition of RET V804M mutant (unknown origin) expressed in Sf9 cells by enzymatic assay.
Test [16] has as its target Proto-oncogene tyrosine-protein kinase receptor Ret (Homo sapiens, UniProt P07949, G810A). Kind of test: Inhibition of RET G810A mutant (unknown origin).
Test [17] has as its target Proto-oncogene tyrosine-protein kinase receptor Ret (Homo sapiens, UniProt P07949, G810D). Kind of test: Inhibition of RET G810D mutant (unknown origin).
For test [18], the target named is Proto-oncogene tyrosine-protein kinase receptor Ret (Homo sapiens, UniProt P07949, G810S). Kind of test: Inhibition of RET G810S mutant (unknown origin).
In test [19] the target is Proto-oncogene tyrosine-protein kinase receptor Ret (Homo sapiens, UniProt P07949, G810V). Kind of test: Inhibition of RET G810V mutant (unknown origin).
For test [20], the target named is Proto-oncogene tyrosine-protein kinase receptor Ret (Homo sapiens, UniProt P07949, G810C). Kind of test: Inhibition of RET G810C mutant (unknown origin).
Test [21] addresses Proto-oncogene tyrosine-protein kinase receptor Ret (Homo sapiens, UniProt P07949, G810R). Kind of test: Inhibition of RET G810R mutant (unknown origin).

Each structure is given as a SMILES string.

By IC50 is commonly meant the concentration needed to halve the response being measured. By inhibition is commonly meant how much of the control response was suppressed. Low values mean a response near the control, high ones a response far below the control.

T2 sequence (P07949 29-1114 V804M limits assumed): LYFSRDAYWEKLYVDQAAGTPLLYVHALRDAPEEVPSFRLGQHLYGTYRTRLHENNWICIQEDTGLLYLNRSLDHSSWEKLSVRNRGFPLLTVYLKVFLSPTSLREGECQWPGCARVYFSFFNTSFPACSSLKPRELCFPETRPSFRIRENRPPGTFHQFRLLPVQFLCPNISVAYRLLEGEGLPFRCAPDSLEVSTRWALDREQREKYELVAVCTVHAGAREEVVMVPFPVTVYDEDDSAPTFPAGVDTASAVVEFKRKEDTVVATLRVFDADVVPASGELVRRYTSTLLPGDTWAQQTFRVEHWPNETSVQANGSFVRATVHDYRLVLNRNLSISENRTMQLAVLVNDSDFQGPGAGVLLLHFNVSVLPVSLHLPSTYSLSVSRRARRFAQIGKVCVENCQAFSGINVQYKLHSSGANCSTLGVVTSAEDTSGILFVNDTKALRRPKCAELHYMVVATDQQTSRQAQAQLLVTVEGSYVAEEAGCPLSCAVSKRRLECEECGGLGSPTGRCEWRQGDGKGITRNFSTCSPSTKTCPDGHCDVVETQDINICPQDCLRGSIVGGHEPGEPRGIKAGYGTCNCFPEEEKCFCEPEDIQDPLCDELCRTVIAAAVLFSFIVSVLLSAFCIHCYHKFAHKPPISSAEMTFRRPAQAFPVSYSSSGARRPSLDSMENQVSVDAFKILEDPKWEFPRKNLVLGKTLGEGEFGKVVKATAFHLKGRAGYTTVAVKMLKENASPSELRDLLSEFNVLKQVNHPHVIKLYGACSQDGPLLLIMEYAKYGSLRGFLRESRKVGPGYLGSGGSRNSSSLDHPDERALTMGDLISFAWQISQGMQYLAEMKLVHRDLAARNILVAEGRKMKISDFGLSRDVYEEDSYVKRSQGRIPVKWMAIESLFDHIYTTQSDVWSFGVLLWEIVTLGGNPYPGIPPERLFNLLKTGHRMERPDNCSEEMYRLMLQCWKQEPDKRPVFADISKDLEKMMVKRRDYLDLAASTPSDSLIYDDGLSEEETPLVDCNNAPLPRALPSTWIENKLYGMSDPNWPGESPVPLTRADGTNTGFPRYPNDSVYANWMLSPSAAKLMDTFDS
Chain of Proto-oncogene tyrosine-protein kinase receptor Ret (Homo sapiens), P07949 [V804L] (P07949 whole entry V804L): as the sequence (P07949 whole entry) above, with V804L counted along it

Turning to `CC1(C)c2cc(C3CCN(CC4CCOCC4)CC3)ccc2C(=O)c2c1[nH]c1cc(C#N)ccc21`, the IC50 in [1] came to 43.6 nM.
In test [2], `Cc1ccc(C(=O)Nc2ccc(CN3CCN(C)CC3)c(C(F)(F)F)c2)cc1C#Cc1cnc(N)c2ncccc12` gave an inhibition of 40%.
With `CCc1cc2c(cc1-c1ccn(CCCN(C)C)n1)C(C)(C)c1[nH]c3cc(C#N)ccc3c1C2=O`, the values for the IC50 in test [3], in test [4] and in test [5] were 0.1 nM, 2 nM and 9 nM, respectively.
Consider `Cn1cc(-c2ccc3c(c2)ncn3-c2ccc(CC(=O)Nc3cc(C(C)(C)C)on3)cc2)cn1`, for which the IC50 in [6], in test [7] and in test [8] was less than 1 nM throughout.
For the compound `CN1CCN(Cc2ccc(NC(=O)c3cncc(C#Cc4cnc(N)c5ncccc45)c3)cc2C(F)(F)F)CC1`, the inhibition in test [9] was 60%; in test [10], 98%. Besides, the IC50 was 3 nM in test [11], 3 nM in [12] and 3.16 nM in [13].
For `Cc1nc2cnc(N)c(C#Cc3cncc(C(=O)Nc4ccc(CN5CCN(C)CC5)c(C(F)(F)F)c4)c3)c2nc1C`, the IC50 in [14] is 1.76 nM; in test [15], 15.1 nM; in test [16], 1.88 nM; in test [17], 7.98 nM; in [18], 10.1 nM; in [19], 3.6 nM. Besides, the IC50 in [20] was 11.6 nM; in [21] it was 18 nM.
